# Reference: EPA's ToxRefDB 2
# What was measured:
# [1] = test system: mouse; details: Combined chronic toxicity/carcinogenicity, cd1, Oral, Feed, dose end: 104 week, group: systemic
# [2] = test system: rat; details: Prenatal developmental toxicity study, sprague dawley, Oral, Gavage/Intubation, dose end: 15 GD
# [3] = test system: mouse; details: Subchronic oral toxicity in rodents, cd1, Feed, dose end: 13 week, group: systemic
# [4] = test system: rabbit; details: Prenatal developmental toxicity study, new zealand white, Oral, Gavage/Intubation, dose end: 18 GD
# [5] = test system: rat; details: Subchronic oral toxicity in rodents, sprague-dawley, Feed, dose end: 13 week, group: systemic
# [6] = test system: rat; details: Multigenerational reproductive toxicity study, sprague dawley, Oral, Feed, dose end: 2 generation
# [7] = test system: rat; details: Subchronic oral toxicity in rodents, other, Feed, dose end: 13 week
# [8] = test system: rat; details: Combined chronic toxicity/carcinogenicity, other, Oral, Gavage/Intubation, dose end: 104 week, group: systemic
# [9] = systemic / pathology gross / skin / lesion(s) (nos) + systemic / pathology microscopic / skin / inflammation
# [10] = group: developmental, developmental / developmental malformation / bone / absent + developmental / developmental malformation / bone / delayed ossification + …
# [11] = group: maternal, systemic / in life observation / body weight / body weight gain
# [12] = group: maternal, systemic / in life observation / body weight / body weight gain + systemic / in life observation / clinical signs / blood around eyes and …
# [13] = systemic / organ weight / liver / relative to body weight
# [14] = group: developmental, developmental / developmental malformation / bone / short
# [15] = group: developmental, developmental / developmental malformation / bone / short + developmental / developmental malformation / bone / [other]
# [16] = group: maternal, reproductive / offspring survival early / offspring survival early other / NOS + reproductive / reproductive performance / resorptions / …
# [17] = systemic / organ weight / heart / relative to body weight
# [18] = group: offspring, systemic / in life observation / clinical signs / tremors + systemic / in life observation / body weight / litter weight + systemic / in …
# [19] = group: offspring, systemic / in life observation / clinical signs / tremors + systemic / pathology gross / skin / ulcer
# [20] = group: parental, systemic / pathology gross / skin / ulcer
# [21] = group: cholinesterase, cholinesterase / cholinesterase / cholinesterase / erythrocyte cholinesterase (che)
# [22] = group: systemic, systemic / hematology / erythrocyte (rbc) count differential / erythrocyte (rbc) + systemic / hematology / hematocrit (hct) / hematocrit (…
# [23] = systemic / in life observation / body weight / body weight + systemic / in life observation / water consumption / water consumption + …
# [24] = systemic / pathology microscopic / mammary gland / fibroadenoma
structure (smiles),measurement,setting,value
CC(C)C(Nc1ccc(C(F)(F)F)cc1Cl)C(=O)OC(C#N)c1cccc(Oc2ccccc2)c1 (stereo not drawn) [Fluvalinate],LEL,[1]; [9],10 mg/kg/day
same,NEL,[1]; [9],2 mg/kg/day
same,LOAEL,[1]; systemic / pathology microscopic / kidney / inflammation,20 mg/kg/day
same,NOAEL,[1]; systemic / pathology microscopic / kidney / inflammation + systemic / pathology gross / skin / lesion(s) (nos) + systemic / pathology …,10 mg/kg/day
same,LEL,[2]; [10],50 mg/kg/day
same,LOAEL,[2]; [10],> 50 mg/kg/day
same,NEL,[2]; [10],10 mg/kg/day
same,NOAEL,[2]; [10],≥ 50 mg/kg/day
same,LEL,[2]; [11],10 mg/kg/day
same,LOAEL,[2]; [11],10 mg/kg/day
same,NEL,[2]; [12],2 mg/kg/day
same,NOAEL,[2]; [12],2 mg/kg/day
same,LEL,[3]; [13],1 mg/kg/day
same,NEL,[3]; [13],< 1 mg/kg/day
same,NOAEL,[3]; systemic / pathology gross / skin / lesion(s) (nos) + systemic / hematology / erythrocyte (rbc) count differential / erythrocyte (rbc) + …,3 mg/kg/day
same,LOAEL,[3]; systemic / pathology gross / skin / lesion(s) (nos) + systemic / in life observation / body weight / body weight,30 mg/kg/day
same,LEL,[4]; [14],125 mg/kg/day
same,LOAEL,[4]; [14],125 mg/kg/day
same,NEL,[4]; [15],25 mg/kg/day
same,NOAEL,[4]; [15],25 mg/kg/day
same,LEL,[4]; [16],125 mg/kg/day
same,LOAEL,[4]; [16],125 mg/kg/day
same,NEL,[4]; [16],25 mg/kg/day
same,NOAEL,[4]; [16],25 mg/kg/day
same,LOAEL,[5]; systemic / hematology / erythrocyte (rbc) count differential / erythrocyte (rbc),30 mg/kg/day
same,NOAEL,[5]; systemic / hematology / erythrocyte (rbc) count differential / erythrocyte (rbc) + systemic / clinical chemistry / albumin / albumin + …,3 mg/kg/day
same,LEL,[5]; [17],0.3 mg/kg/day
same,NEL,[5]; [17],< 0.3 mg/kg/day
same,LEL,[6]; [18],9.53 mg/kg/day
same,LOAEL,[6]; [18],9.53 mg/kg/day
same,NEL,[6]; [19],1.9 mg/kg/day
same,NOAEL,[6]; [19],1.9 mg/kg/day
same,LEL,[6]; [20],9.53 mg/kg/day
same,LOAEL,[6]; [20],9.53 mg/kg/day
same,NEL,[6]; [20],1.9 mg/kg/day
same,NOAEL,[6]; [20],1.9 mg/kg/day
same,LEL,[7]; [21],18.8 mg/kg/day
same,LOAEL,[7]; [21],> 116 mg/kg/day
same,NEL,[7]; [21],7.7 mg/kg/day
same,NOAEL,[7]; [21],≥ 116 mg/kg/day
same,LEL,[7]; [22],1.82 mg/kg/day
same,LOAEL,[7]; [22],1.82 mg/kg/day
same,NEL,[7]; [22],< 1.82 mg/kg/day
same,NOAEL,[7]; [22],< 1.82 mg/kg/day
same,LOAEL,[8]; [23],2.5 mg/kg/day
same,NOAEL,[8]; [23],1 mg/kg/day
same,LEL,[8]; [24],0.25 mg/kg/day
same,NEL,[8]; [24],< 0.25 mg/kg/day
